Results reported in patent US11760764B2, “Methods and compositions for targeting PD-L1” (Aligos Therapeutics, Inc., priority 2020, dated 2023).

Biological target: PD-1/PD-L1 interaction (PDL1-6×His protein, PD1-Fc-Avi-Biotin protein) (Homo sapiens, UniProt Q9NZQ7)
Experiment: PDL1/PD1 Binding Assay
Conditions: Table C; 0.3 nM PDL1, 2.5 nM PD1; read-out: PD-1/PD-L1 PPI IC50
Protocol: Compounds to be tested were serially diluted in DMSO, and further diluted in assay buffer (25 mM Hepes pH 7.4, 150 mM NaCl, 0.005% Tween 20, BSA 0.01%). Diluted compounds were added to the wells with final concentration of DMSO at 1%. PDL1-6×His protein was added to the wells, mixed well with compound. The plates were incubated for 30 min at room temperature. PD1-Fc-Avi-Biotin protein was added to the wells. […] After a binding time of 30 min at room temperature, Anti-6×His Acceptor beads (final concentration 20 ug/ml) were added to the wells, and the incubation continued for 1 h. Streptavidin Donor beads (final concentration 20 ug/mL) were added at reduced light. The plates were sealed with foil and incubated in the dark for additional 1 h or overnight before reading on an Envision reader. The IC50s were determined by fitting the curves using a four-parameter equation in Graphpad Prism 8.

PD-1/PD-L1 interaction (PDL1-6×His protein, PD1-Fc-Avi-Biotin protein), sequence (Q9NZQ7 19-238 limits assumed): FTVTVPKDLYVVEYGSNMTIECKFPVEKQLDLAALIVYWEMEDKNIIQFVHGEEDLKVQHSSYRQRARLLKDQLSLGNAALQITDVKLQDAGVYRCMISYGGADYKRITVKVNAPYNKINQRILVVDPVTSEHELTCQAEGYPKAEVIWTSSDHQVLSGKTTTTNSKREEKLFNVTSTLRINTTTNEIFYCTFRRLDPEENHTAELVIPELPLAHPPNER

IC50 [nM]	Compound
≤ 10	O=C(O)CN1CCc2cc(-c3cccc(-c4cccc(-c5ccc6c(c5)CCN(CC(=O)O)C6)c4Cl)c3Cl)ccc2C1 [Compound H-2]
1000 to 10000	Cc1c(-c2cccc(-c3cccc(-c4ccc5c(c4C)CNCC5)c3Cl)c2Cl)ccc2c1CNCC2 [Compound B-15]
100 to 1000	CC1(C)CN(C[C@@H](O)CC(=O)O)Cc2ccc(-c3cccc(-c4cccc(-c5ccc6c(c5)C(C)(C)CN(C[C@@H](O)CC(=O)O)C6)c4Cl)c3Cl)cc21 [Compound C-7]
100 to 1000	Cc1c(-c2cccc(-c3cccc(-c4ccc5c(c4C)CCNC5)c3Cl)c2Cl)ccc2c1CCNC2 [Compound B-14]
10 to 100	COc1cc(-c2cccc(-c3cccc(-c4cc5c(c(OC)c4)CNCC5)c3Cl)c2Cl)cc2c1CNCC2 [Compound B-17]
100 to 1000	N[C@@H]1CCc2cc(-c3cccc(-c4cccc(-c5ccc6c(c5)CC[C@H]6N)c4Cl)c3Cl)ccc21 [Compound B-8]
10 to 100	Fc1cc(-c2cccc(-c3cccc(-c4cc(F)c5c(c4)CCNC5)c3Cl)c2Cl)cc2c1CNCC2 [Compound B-10]
≤ 10	CC1Cc2cc(-c3cccc(-c4cccc(-c5ccc6c(c5)CC(C)N(C[C@@H](O)CC(=O)O)C6)c4Cl)c3Cl)ccc2CN1C[C@@H](O)CC(=O)O (stereo partly shown) [Compound C-9]
≤ 10	Clc1c(-c2ccc3c(c2)CCNC3)cccc1-c1cccc(-c2ccc3c(c2)CCNC3)c1Cl [Compound B-1]
100 to 1000	O=C(O)C[C@H](O)CN1CCc2nc(-c3cccc(-c4cccc(-c5ccc6c(n5)CCN(C[C@@H](O)CC(=O)O)C6)c4Cl)c3Cl)ccc2C1 [Compound C-3]
100 to 1000	Clc1c(-c2ccc3c(c2)CC(N2CCOCC2)C3)cccc1-c1cccc(-c2ccc3c(c2)CC(N2CCOCC2)C3)c1Cl (stereo not shown) [Compound A-8]
100 to 1000	Clc1c(-c2ccc3c(n2)OCCNC3)cccc1-c1cccc(-c2ccc3c(n2)OCCNC3)c1Cl [Compound B-5]
100 to 1000	CCOC(=O)CN[C@H]1CCc2cc(-c3cccc(-c4cccc(-c5ccc6c(c5)CC[C@@H]6NCC(=O)OCC)c4Cl)c3Cl)ccc21 [Compound F-1]
10 to 100	O=C(O)CN1CC2(C1)OCc1cc(-c3cccc(-c4cccc(-c5ccc6c(c5)COC65CN(CC(=O)O)C5)c4Cl)c3Cl)ccc12 [Compound H-4]
≤ 10	O=C(O)C[C@H](O)CN1CCc2cc(-c3cccc(-c4cccc(-c5ccc6c(c5)CCN(C[C@@H](O)CC(=O)O)C6)c4Cl)c3Cl)ccc2C1 [Compound C-2]
10 to 100	Clc1c(-c2ccc3c(n2)CCNC3)cccc1-c1cccc(-c2ccc3c(n2)CCNC3)c1Cl [Compound B-3]
10 to 100	N[C@@H](CC(=O)O)C(=O)N1CCc2ccc(-c3cccc(-c4cccc(-c5ccc6c(c5)CN(C(=O)[C@@H](N)CC(=O)O)CC6)c4Cl)c3Cl)cc2C1 [Compound J-1]
10 to 100	Clc1c(-c2cc3c(cn2)CNCC3)cccc1-c1cccc(-c2cc3c(cn2)CNCC3)c1Cl [Compound B-4]
≤ 10	O=C(O)CN1CCc2ccc(-c3cccc(-c4cccc(-c5ccc6c(c5)CN(CC(=O)O)CC6)c4Cl)c3Cl)cc2C1 [Compound H-1]
1000 to 10000	O=C(O)C[C@H](O)CN1CCOc2nc(-c3cccc(-c4cccc(-c5ccc6c(n5)OCCN(C[C@@H](O)CC(=O)O)C6)c4Cl)c3Cl)ccc2C1 [Compound C-5]

IC50 [nM]	Compound
10 to 100	O=C(O)C[C@H](O)CN1CCc2cc(-c3cccc(-c4cccc(-c5cc6c(cn5)CN(C[C@@H](O)CC(=O)O)CC6)c4Cl)c3Cl)ncc2C1 [Compound C-4]
1000 to 10000	Clc1c(-c2ccc3c(c2)COC32CNC2)cccc1-c1cccc(-c2ccc3c(c2)COC32CNC2)c1Cl [Compound B-12]
≤ 10	O=C(O)C[C@H](O)CN1CCc2ccc(-c3cccc(-c4cccc(-c5ccc6c(c5)CN(C[C@@H](O)CC(=O)O)CC6)c4Cl)c3Cl)cc2C1 [Compound C-6]
≤ 10	O=C(O)CNC1Cc2ccc(-c3cccc(-c4cccc(-c5ccc6c(c5)CC(NCC(=O)O)C6)c4Cl)c3Cl)cc2C1 (stereo not shown) [Compound A-5]
≤ 10	O=C(O)C[C@H](O)CN1CCc2cc(-c3cccc(-c4cccc(-c5cc(F)c6c(c5)CCN(C[C@@H](O)CC(=O)O)C6)c4Cl)c3Cl)cc(F)c2C1 [Compound C-8]
1000 to 10000	Clc1c(-c2ccc3c(c2)CCNC3)cccc1-c1cccc(-c2ccc3c(c2)CCN(c2ncccn2)C3)c1Cl [Compound K-1]
100 to 1000	N[C@H]1CCc2cc(-c3cccc(-c4cccc(-c5ccc6c(c5)CC[C@@H]6N)c4Cl)c3Cl)ccc21 [Compound B-7]
10 to 100	Clc1c(-c2ccc3c(c2)CNC3)cccc1-c1cccc(-c2ccc3c(c2)CNC3)c1Cl [Compound B-2]
10 to 100	CC(=O)NCCNC1CCc2cc(-c3cccc(-c4cccc(-c5ccc6c(c5)CCC6NCCNC(C)=O)c4Cl)c3Cl)ccc21 (stereo not shown) [Compound A-3]
> 10000	CC(=O)N1CC(N2CCOc3nc(-c4cccc(-c5cccc(-c6ccc7c(n6)OCCN(C6CN(C(C)=O)C6)C7)c5Cl)c4Cl)ccc3C2)C1 [Compound I-1]
≤ 10	O=C(O)CNC1CCc2cc(-c3cccc(-c4cccc(-c5ccc6c(c5)CCC6NCC(=O)O)c4Cl)c3Cl)ccc21 (stereo not shown) [Compound A-1]
100 to 1000	O=C(O)CN1CCC12CCc1cc(-c3cccc(-c4cccc(-c5ccc6c(c5)CCC5(CCN5CC(=O)O)C6)c4Cl)c3Cl)ccc1C2 (stereo not shown) [Compound H-3]
100 to 1000	Cc1cc2c(cc1-c1cccc(-c3cccc(-c4cc5c(cc4C)CNCC5)c3Cl)c1Cl)CCNC2 [Compound B-16]
10 to 100	CC1Cc2cc(-c3cccc(-c4cccc(-c5ccc6c(c5)CC(C)NC6)c4Cl)c3Cl)ccc2CN1 (stereo not shown) [Compound B-13]
100 to 1000	O=C1CC[C@@H](CNC2Cc3ccc(-c4cccc(-c5cccc(-c6ccc7c(c6)CC(O)C7)c5Cl)c4Cl)cc3C2)N1 (stereo partly shown) [Compound A-7]
≤ 10	O=C1CC[C@@H](CNC2Cc3ccc(-c4cccc(-c5cccc(-c6ccc7c(c6)CC(NC[C@@H]6CCC(=O)N6)C7)c5Cl)c4Cl)cc3C2)N1 (stereo partly shown) [Compound A-6]
1000 to 10000	CC1(C)CNCc2ccc(-c3cccc(-c4cccc(-c5ccc6c(c5)C(C)(C)CNC6)c4Cl)c3Cl)cc21 [Compound B-9]
≤ 10	O=C(O)C[C@H](O)CN1Cc2ccc(-c3cccc(-c4cccc(-c5ccc6c(c5)CN(C[C@@H](O)CC(=O)O)C6)c4Cl)c3Cl)cc2C1 [Compound C-1]
10 to 100	CC(=O)NCCNC1Cc2ccc(-c3cccc(-c4cccc(-c5ccc6c(c5)CC(NCCNC(C)=O)C6)c4Cl)c3Cl)cc2C1 (stereo not shown) [Compound A-4]

Biological target: T1, PD-1/PD-L1 interaction (Jurkat cells overexpressing PD-1 co-cultured with PD-L1 expressing CHO cells) (Homo sapiens, UniProt Q9NZQ7)
T1 construct: expressed in transfected cells; Jurkat cells (PD-1 and NF-AT luciferase construct)
Experiment: PD-1/PD-L1 NFAT Reporter Assay
Format: cell-based
Conditions: Table C-1; Jurkat/CHO co-culture, 6 hrs at 37° C., luciferase activity
Protocol: Blocking the PD-1/PD-L1 interaction will release the inhibitory signal and results in TCR signaling and NFAT-mediated luciferase activity.
CHO cells expressing surface-bound anti-CD3 antibodies and PD-L1 were first seeded overnight and treated with the compounds. Jurkat cells overexpressing PD-1 and a luciferase construct under NF-AT promoter were then immediately seeded on the monolayer of CHO cells. The co-culture was then incubated for 6 hrs at 37° C. Luciferase activity was assessed by adding the ONE-Glo reagent and measuring luminescence with a plate reader. EC50s values were determined from the fit of the dose-response curves

T1 sequence (Q9NZQ7 19-290): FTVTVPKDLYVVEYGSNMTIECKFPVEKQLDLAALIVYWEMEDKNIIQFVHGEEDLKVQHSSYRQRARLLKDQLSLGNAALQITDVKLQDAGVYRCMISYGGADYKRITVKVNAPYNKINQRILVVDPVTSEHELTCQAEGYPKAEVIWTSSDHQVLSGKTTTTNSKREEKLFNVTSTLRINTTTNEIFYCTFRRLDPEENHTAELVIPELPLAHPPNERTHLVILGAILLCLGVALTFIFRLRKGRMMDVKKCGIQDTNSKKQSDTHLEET

EC50 [nM]	PD-1/PD-L1 NFAT Reporter Assay	Compound
≤ 10	–	COc1nc(-c2cccc(-c3cccc(-c4cc5c(c(OC)n4)[C@@H](NC[C@@H]4CCC(=O)N4)CC5)c3Cl)c2Cl)cc2c1[C@@H](NC[C@@H]1CCC(=O)N1)CC2 [Compound L-3]
10 to 100	–	COCCN1CCc2c(cc(-c3cccc(-c4cccc(-c5cc6c(c(OC)c5)[C@@H](N5CC(C(=O)O)C5)CC6)c4Cl)c3Cl)nc2OC)C1 [Compound O-2B]
100 to 1000	–	COc1cc(-c2cccc(-c3cccc(-c4cc5c(c(OC)c4)[C@@H](N4CC(C(=O)O)C4)CC5)c3Cl)c2Cl)cc2c1[C@@H](NC[C@@H]1CCC(=O)N1)CC2 (single isomer, unassigned) [Compound N-2B]
10 to 100	–	CCOC(=O)C1CN([C@H]2CCc3cc(-c4cccc(-c5cccc(-c6cc7c(c(OC)n6)[C@@H](NC[C@@H]6CCC(=O)N6)CC7)c5Cl)c4Cl)nc(OC)c32)C1 (single isomer, unassigned) [Compound N-1A]
> 10000	–	COc1cc(-c2cccc(-c3cccc(-c4cc5c(c(OC)c4)[C@@H](NC[C@@H]4CCC(=O)N4)CC5)c3Cl)c2Cl)cc2c1[C@@H](NC[C@@H]1CCC(=O)N1)CC2 (single isomer, unassigned) [Compound L-2]
–	n.r	CCOC(=O)C1CN([C@H]2CCc3cc(-c4cccc(-c5cccc(-c6cc7c(c(OC)c6)[C@@H](NC[C@@H]6CCC(=O)N6)CC7)c5Cl)c4Cl)cc(OC)c32)C1 (single isomer, unassigned) [Compound N-2A]
10 to 100	–	COc1cc(-c2cccc(-c3cccc(-c4cc5c(c(OC)c4)[C@@H](N4CC(C(=O)O)C4)CC5)c3Cl)c2Cl)cc2c1[C@H](NC[C@@H]1CCC(=O)N1)CC2 (single isomer, unassigned) [Compound N-3B]
≤ 10	–	COc1nc(-c2cccc(-c3cccc(-c4cc5c(c(OC)n4)[C@@H](N4CC(C(=O)O)C4)CC5)c3Cl)c2Cl)cc2c1[C@@H](NC[C@@H]1CCC(=O)N1)CC2 (single isomer, unassigned) [Compound N-1B]
10 to 100	–	CCOC(=O)C1CN([C@H]2CCc3cc(-c4cccc(-c5cccc(-c6cc7c(c(OC)c6)[C@H](NC[C@@H]6CCC(=O)N6)CC7)c5Cl)c4Cl)cc(OC)c32)C1 (single isomer, unassigned) [Compound N-3A]
10 to 100	–	COc1cc(-c2cccc(-c3cccc(-c4cc5c(c(OC)c4)[C@H](NC[C@@H]4CCC(=O)N4)CC5)c3Cl)c2Cl)cc2c1[C@H](NC[C@@H]1CCC(=O)N1)CC2 (single isomer, unassigned) [Compound L-1]
